The values below come from paper PMC12647759 (Scientific Reports, 2025).

In general, IC50 refers to the concentration at which inhibition is half-maximal.

The assay addresses T1, human PLCγ1 (Homo sapiens, UniProt P19174).
T1 construct: expressing the full-length polypeptides of human PLCε, PLCβ4, PLCδ1 and PLCγ1 as FLAG fusions; made in house; host or cells: Expi293F cells
T1 sequence (P19174 1-1290): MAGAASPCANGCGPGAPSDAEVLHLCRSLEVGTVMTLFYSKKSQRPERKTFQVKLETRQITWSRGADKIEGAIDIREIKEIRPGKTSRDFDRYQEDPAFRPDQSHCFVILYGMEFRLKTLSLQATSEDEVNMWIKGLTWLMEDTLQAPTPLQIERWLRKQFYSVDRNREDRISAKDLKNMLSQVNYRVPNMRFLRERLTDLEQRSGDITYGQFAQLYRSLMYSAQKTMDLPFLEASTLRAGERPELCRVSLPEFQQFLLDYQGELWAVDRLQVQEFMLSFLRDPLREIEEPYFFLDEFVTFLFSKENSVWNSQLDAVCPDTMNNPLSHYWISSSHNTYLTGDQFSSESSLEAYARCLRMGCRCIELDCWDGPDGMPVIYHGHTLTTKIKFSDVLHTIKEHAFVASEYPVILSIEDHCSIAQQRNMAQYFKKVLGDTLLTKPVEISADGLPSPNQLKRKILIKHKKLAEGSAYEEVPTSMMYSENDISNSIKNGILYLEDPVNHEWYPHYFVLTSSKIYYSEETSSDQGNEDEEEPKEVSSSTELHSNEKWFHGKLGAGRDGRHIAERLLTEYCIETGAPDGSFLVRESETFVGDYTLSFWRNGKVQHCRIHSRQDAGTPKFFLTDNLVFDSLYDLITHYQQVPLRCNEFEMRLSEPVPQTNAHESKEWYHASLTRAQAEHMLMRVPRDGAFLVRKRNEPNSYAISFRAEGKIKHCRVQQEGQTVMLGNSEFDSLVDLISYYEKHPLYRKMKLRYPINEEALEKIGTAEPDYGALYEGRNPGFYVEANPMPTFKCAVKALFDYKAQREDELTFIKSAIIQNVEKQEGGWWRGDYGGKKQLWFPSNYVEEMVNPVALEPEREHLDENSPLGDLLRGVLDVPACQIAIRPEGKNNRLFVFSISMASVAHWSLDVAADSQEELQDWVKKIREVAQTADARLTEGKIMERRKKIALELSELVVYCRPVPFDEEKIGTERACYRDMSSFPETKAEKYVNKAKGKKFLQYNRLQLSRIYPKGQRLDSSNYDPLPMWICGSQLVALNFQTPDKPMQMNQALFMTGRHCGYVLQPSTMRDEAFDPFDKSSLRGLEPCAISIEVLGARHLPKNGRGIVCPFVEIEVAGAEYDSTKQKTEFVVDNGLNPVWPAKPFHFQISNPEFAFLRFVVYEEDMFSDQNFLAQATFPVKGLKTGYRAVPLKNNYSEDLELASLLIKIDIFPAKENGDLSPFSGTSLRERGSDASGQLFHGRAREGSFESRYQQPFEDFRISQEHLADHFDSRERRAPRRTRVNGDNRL
Description: In vitro PLC assay using fluorogenic substrate Compound 1, PLCγ1. The following applies: for IC50: purified PLCγ1, fluorogenic substrate Compound 1, read-out: IC50, inhibition of PLCγ1 (hydrolysis of Compound 1). Type of assay: biochemical. On the procedure: Ten µl of 2 × substrate solutions (50 mM HEPES pH7.2, 200 mM NaCl, 0.2 mM CaCl2, 0.4 mM DTT, 0.4 µM EDTA, 0.02% gelatin, 0.2% sodium cholate and 60 µM Compound 1) were added to each well of a 384-well plate (CONING #3573) containing 10 µl of purified PLCε (120 ng) and incubated with shaking at 30 °C for 3 h. After terminating the reaction by the addition of 2 µl of 5 mM EDTA, the fluorescence emission was measured at 520 nm with the excitation at 485 nm by a microplate reader (POLARstar Omega-25). For measuring inhibition by compounds for HTS, the reactions were conducted at RIKEN Center for Sustainable Resource Science (CSRS) as described above except that 5 µl of compound solution and 5 µl of purified PLCe (120 ng) were added to each well. Solution dispensing and fluorescence detection were conducted by using an automated dispenser (EDR-384, Biotec) and a hybrid multi-mode microplate reader (Synergy H4, Biotec), respectively. For determination of the IC50 values for ZPT and Zn^2+, the EDTA concentration was reduced to one-tenth to avoid its zinc-chelating effect. For assay of the other PLC classes, the reactions were performed similarly except that PLCβ4 (5 ng), PLCδ1 (0.1 ng) or PLCγ1 (0.3 ng) was used instead of PLCε.

For the compound `C[n+]1cc2c3c(ccc2c2ccc4cc5c(cc4c21)OCO5)OCO3` [Sanguinarine, sanguinarine], the IC50 is 1600 nM.

Consider `O=S(=O)([O-])[O-].[Zn+2]` [ZnSO4], for which the “inhibitory activity toward PLCγ” value (Compound 1 as substrate, varying concentrations) is on record as “without exhibiting any noticeable inhibitory activities”.

With `COc1ccc2c(c[n+](C)c3c4cc5c(cc4ccc23)OCO5)c1OC` [chelerythrine], the IC50 turned out to be 1800 nM.

Take `CCCCCCOc1ccc2c(c1)Oc1cc(OP(=O)(O)O[C@H]3[C@H](O)[C@@H](O)[C@H](OP(=O)(O)O)[C@@H](O)[C@H]3O)ccc1C21OC(=O)c2ccccc21` (stereo partly shown) [compound 1]: the IC50 is 8700 nM.
